# Earlier results in paper PMC8623647 (Pharmaceuticals, 2021).
# Test system: MAO-B
# Parameters: method as in PMID 30915862
# Conditions: study of Shalaby et al. ref 25; cited from earlier work
structure (smiles),measurement,value
CSc1ccc(C(=O)/C=C/c2cccc(Br)c2)cc1 [(E)-3-(3-bromophenyl)-1-(4-(methylthio)phenyl)prop-2-en-1-one],IC50,190 ± 10 nM
